Test system: P-Y1068-EGFR
Assay: Western blot analysis of P-Y1068-EGFR in EGF-stimulated HCT15 cells treated with DGK inhibitor
Assay type: cell-based, human
Conditions: versus DMSO control, pre-incubated 30 min
Experimental: Cells were plated in 6 or 10 cm dishes and starved for 2 h at 37 C in PBS. After resting, cells were EGF-stimulated for different time 3, 10 or 30 min. Cells were lysed with ice-cold 2% NP40 supplemented with protease and phosphatase inhibitors [10 mM sodium fluoride, 2 mM sodium orthovanadate, 0.5 mM EDTA, 2 mM phenyl-methylsulfonyl fluoride, 1 mM sodium molybdate, aprotonin (10 mg/ml), leupeptin (10 mg/ml), pepstatin (1 mg/ml)]. After 30 min on ice, lysates were centrifuged and supernatant were mix with 2× sample buffer. Protein lysates were separated on acrylamide gel 10%, transferred on PVDF membrane and incubated with primary antibodies of interest. Inhibitors such as Rottlerin (20 μM) and DGK were pre-incubated for 30 min before stimulation. Western blots were visualized with enhanced chemo-luminescence and imaging on a Fuji LAS 4000 image station (GE Healthcare). The protein bands in Western blots were quantified with Multi Gauge software, and densitometry (pixel intensity) was determined within the linear range of the exposure. Amounts of the proteins of interest were typically presented as a ratio of the indicated loading control. Values were then normalized to an indicated sample and noted as a fold difference. Results represent at least three independent experiments.

For O=c1c2ccccc2[nH]c(=S)n1CCN1CCC(=C(c2ccc(F)cc2)c2ccc(F)cc2)CC1 [R59949], the P-Y1068-EGFR levels was “decreased levels”.

Source: US10676792B2, “Prognostic and diagnostic methods for colorectal cancer” (The Regents of the University of California, priority 2015, dated 2020)
